Publication PMC8922279, “Identification of β-Lactams Active against Mycobacterium tuberculosis by a Consortium of Pharmaceutical Companies and Academic Institutions” (ACS Infectious Diseases, 2022)

What was measured:
Mtb H37Rv [1] = assay: MIC90 against replicating (R) Mtb H37Rv, with or without clavulanate; assay type: cell-based, Mycobacterium tuberculosis; conditions: Table S4; for Mtb H37Rv R + CLAV (MIC90): clavulanate 4 μg/mL; for Mtb H37Rv R (MIC90): no clavulanate
Mtb H37Rv [2] = assay: MIC90 against nonreplicating (NR, 4-stress) Mtb H37Rv, with or without clavulanate; assay type: cell-based, Mycobacterium tuberculosis; conditions: 4-stress nonreplicating, Table S4; for Mtb H37Rv NR + CLAV (MIC90): clavulanate 4 μg/mL; for Mtb H37Rv NR (MIC90): no clavulanate
E. coli = assay: Microbial spectrum, E. coli; assay type: cell-based, Escherichia coli; conditions: clavulanate 4 μg/mL; Table S4
P. aeruginosa = assay: Microbial spectrum, P. aeruginosa; assay type: cell-based, Pseudomonas aeruginosa; conditions: clavulanate 4 μg/mL; Table S4
S. aureus = assay: Microbial spectrum, S. aureus; assay type: cell-based, Staphylococcus aureus; conditions: clavulanate 4 μg/mL; Table S4
C. albicans = assay: Microbial spectrum, C. albicans; assay type: cell-based, Candida albicans; conditions: no clavulanate; Table S4
[3] = In vitro plasma stability, human plasma; conditions: 2 μM, 37 °C, time point 120 min
[4] = In vitro plasma stability, SD rat plasma; conditions: 2 μM, 37 °C, time point 120 min
[5] = Stability in simulated gastric fluid (SGF); conditions: 10 μM, pH 1.2, room temperature
[6] = In vitro plasma stability, CD-1 mouse plasma; conditions: 2 μM, 37 °C, time point 120 min
[7] = In vitro plasma stability, beagle dog plasma; conditions: 2 μM, 37 °C, time point 120 min
[8] = In vitro plasma stability, cynomolgus monkey plasma; conditions: 2 μM, 37 °C, time point 120 min
[9] = Stability in fasted simulated intestinal fluid (FaSSIF); conditions: 10 μM, pH 6.5, room temperature

Row | Structure (SMILES) | Mtb H37Rv R + CLAV (MIC90) (Mtb H37Rv [1]) [µM] | Mtb H37Rv R (MIC90) (Mtb H37Rv [1]) [µM] | Mtb H37Rv NR + CLAV (MIC90) (Mtb H37Rv [2]) [µM] | Mtb H37Rv NR (MIC90) (Mtb H37Rv [2]) [µM] | E.coli R + CLAV (MIC90) (E. coli) [µM] | P.aeruginosa R + CLAV (MIC90) (P. aeruginosa) [µM] | S.aureus R + CLAV (MIC90) (S. aureus) [µM] | C.albicans R (MIC90) (C. albicans) [µM] | Plasma stability % Remaining, Human [3] [%] | Plasma stability % Remaining, Rat [4] [%] | SGF Stability, % remaining, 1h ([5]; 1 h) [%] | SGF Stability, % remaining, 24h ([5]; 24 h) [%] | Plasma stability % Remaining, Mouse [6] [%] | Plasma stability % Remaining, Dog [7] [%] | Plasma stability % Remaining, Monkey [8] [%] | FaSSIF Stability, % remaining, 6h ([9]; 6 h) [%] | FaSSIF Stability, % remaining, 24h ([9]; 24 h) [%]
1 | O=C(Cn1cnnn1)N[C@@H]1C(=O)N2C(C(=O)O)=C(CSc3cccc[n+]3[O-])CS[C@H]12 [TBBL-0000002] | 5.8 | 5.7 | 3 | 4.4 | 15.3 | > 100 | 3.7 | > 100 | – | – | – | – | – | – | – | – | –
2 | O=C(CSc1cccc[n+]1[O-])N[C@@H]1C(=O)N2C(C(=O)O)=C(CSc3cccc[n+]3[O-])CS[C@H]12 [TBBL-0000003] | 3.8 | 4.8 | 3.5 | 3.2 | 44.1 | > 100 | 4.3 | > 100 | – | – | – | – | – | – | – | – | –
3 | CC(=O)OC(C(=O)N[C@@H]1C(=O)N2C(C(=O)O)=C(CSc3cccc[n+]3[O-])CS[C@H]12)c1ccccc1 (stereo partly drawn) [TBBL-0000007] | 2.8 | 2.3 | 2.5 | 2.3 | 85.1 | > 100 | 2.4 | > 100 | – | – | – | – | – | – | – | – | –
4 | CC(=O)OCC1=C(C(=O)O)N2C(=O)[C@@H](NC(=O)CSc3nc4ccccc4s3)[C@H]2SC1 [TBBL-0000010] | 3.9 | 62 | > 100 | > 100 | > 100 | > 100 | 0.2 | > 100 | – | – | – | – | – | – | – | – | –
5 | O=C(Cc1csc(=O)s1)N[C@@H]1C(=O)N2C(C(=O)O)=C(CSc3nnnn3CCO)CS[C@H]12 [TBBL-0000305] | 2.1 | 40.7 | > 100 | > 100 | 7.5 | > 100 | > 100 | > 100 | – | – | – | – | – | – | – | – | –
6 | NCCSC=CC1=C(C(=O)O)N2C(=O)C(NC(=O)CSc3ccc(Cl)c(Cl)c3)C2SC1 (stereo not drawn) [TBBL-0000306] | 0.3 | 14.4 | > 100 | > 100 | > 100 | > 100 | > 100 | > 100 | 9.5 | 23.0 | 110.19 | 92.52 | 33.8 | 16.6 | 2.0 | 102.19 | 98.38
7 | CCCn1nnnc1SCC1=C(C(=O)O)N2C(=O)[C@@H](NC(=O)Cc3ccc(C4=NCCN4)cc3)[C@H]2SC1 [TBBL-0000311] | 0.8 | 14.1 | > 100 | > 100 | > 100 | > 100 | 0.9 | > 100 | – | – | – | – | – | – | – | – | –
8 | C=CCn1nnnc1SCC1=C(C(=O)O)N2C(=O)[C@@H](NC(=O)Cc3ccc(C4=NCCN4)cc3)[C@H]2SC1 [TBBL-0000312] | 0.8 | 22.1 | > 100 | > 100 | > 100 | > 100 | 1.1 | > 100 | – | – | – | – | – | – | – | – | –
9 | CCn1nnnc1SCC1=C(C(=O)O)N2C(=O)[C@@H](NC(=O)Cc3ccc(C4=NCCN4)cc3)[C@H]2SC1 [TBBL-0000313] | 0.6 | 17.3 | > 100 | > 100 | 11.6 | > 100 | 0.8 | > 100 | – | – | – | – | – | – | – | – | –
10 | CCn1nnnc1SCC1=C(C(=O)O)N2C(=O)[C@@H](NC(=O)Cc3ccc(C4=NCCCN4)cc3)[C@H]2SC1 [TBBL-0000318] | 0.8 | 24.5 | > 100 | > 100 | 60.5 | > 100 | 2 | > 100 | – | – | – | – | – | – | – | – | –
11 | Cn1nnnc1SCC1=C(C(=O)O)N2C(=O)[C@@H](NC(=O)Cc3ccc(C4=NCCN4)cc3)[C@H]2SC1 [TBBL-0000323] | 0.8 | 31.9 | > 100 | > 100 | 14 | > 100 | 1.8 | > 100 | – | – | – | – | – | – | – | – | –
12 | CC(O)Cn1nnnc1SCC1=C(C(=O)O)N2C(=O)[C@@H](NC(=O)Cc3csc(=O)s3)[C@H]2SC1 (stereo partly drawn) [TBBL-0000325] | 1.4 | 53.2 | > 100 | > 100 | 3.8 | > 100 | 0.6 | > 100 | – | – | – | – | – | – | – | – | –
13 | CC1=C(C(=O)O)N2C(=O)[C@@H](NC(=O)CSc3ccc(C(=N)N)cc3)[C@H]2SC1 [TBBL-0000328] | 1.4 | 64.1 | > 100 | > 100 | > 100 | > 100 | 12.9 | > 100 | – | – | – | – | – | – | – | – | –
14 | Cc1nnc(SCC2=C(C(=O)O)N3C(=O)[C@@H](NC(=O)Cc4sc(=O)sc4C)[C@H]3SC2)s1 [TBBL-0000330] | 2.8 | 27.6 | > 100 | > 100 | > 100 | > 100 | > 100 | > 100 | – | – | – | – | – | – | – | – | –
15 | Cc1nnc(SCC2=C(C(=O)O)N3C(=O)[C@@H](NC(=O)CSc4cc(Cl)ccc4Cl)[C@H]3SC2)s1 [TBBL-0000415] | 1.6 | 22.9 | > 100 | > 100 | 22.7 | > 100 | < 0.1 | > 100 | – | – | – | – | – | – | – | – | –
16 | CCc1cc[n+](CC2=C(C(=O)[O-])N3C(=O)[C@@H](NC(=O)Cc4cccs4)[C@H]3SC2)cc1 [TBBL-0000418] | 1.4 | 100 | > 100 | > 100 | 7 | > 100 | 0.5 | > 100 | – | – | – | – | – | – | – | – | –
17 | N=C(N)SCc1ccccc1SC1=C(C(=O)O)N2C(=O)[C@@H](NC(=O)C(N)c3ccccc3)[C@H]2CC1 (stereo partly drawn) [TBBL-0000435] | 1.1 | 90.2 | > 100 | > 100 | > 100 | > 100 | 0.8 | > 100 | – | – | – | – | – | – | – | – | –
18 | Cn1nnnc1SCC1=C(C(=O)O)N2C(=O)[C@@H](NC(=O)CSc3cc(Cl)ccc3Cl)[C@H]2SC1 [TBBL-0000446] | 1.5 | 20.7 | > 100 | > 100 | 13.3 | > 100 | < 0.1 | > 100 | – | – | – | – | – | – | – | – | –
19 | O=C(Cc1cccs1)N[C@@H]1C(=O)N2C(C(=O)O)=C(C[n+]3ccccn3)CS[C@H]12 [TBBL-0000466] | 1.8 | 39 | > 100 | > 100 | 35.1 | > 100 | 0.5 | > 100 | – | – | – | – | – | – | – | – | –
20 | Nc1nnc(SCC2=C(C(=O)O)N3C(=O)[C@@H](NC(=O)CSc4cc(Cl)ccc4Cl)[C@H]3SC2)s1 [TBBL-0000467] | 1.5 | 52.2 | > 100 | > 100 | > 100 | > 100 | < 0.1 | > 100 | – | – | – | – | – | – | – | – | –
21 | O=C(Cc1cccs1)N[C@@H]1C(=O)N2C(C(=O)[O-])=C(C[n+]3ccccc3)CS[C@H]12 [TBBL-0000493] | 2.2 | 50 | > 100 | > 100 | 37.9 | > 100 | 0.8 | > 100 | – | – | – | – | – | – | – | – | –
